The values below are quoted from earlier work in patent US12233082B2, “Compositions and methods for multi-use suppression and acquisition of viruses” (priority 2021, dated 2025).

The subject of one series is HSV. Conditions: 500 mg valacyclovir; expected for group 2 from previous research.
In the next series the test system is HIV-1. Conditions: 500 mg valacyclovir twice daily, 12 weeks, vs placebo.

Regarding `CC(C)[C@H](N)C(=O)OCCOCn1cnc2c(=O)[nH]c(N)nc21` [valacyclovir], in the series on HSV, the “HSV PCR detectability rate median” value is given as 5% of days. Further, the “percentage of source partners with HSV-2 shedding in the genital tract (FIG. 1)” value with HSV-2 (500 mg valacyclovir daily, N=39 vs placebo N=50, PCR detectable shedding) is “decreased at a much quicker rate than those taking the placebo”. Also, in the series with HSV-2 (500 mg valacyclovir once daily, 8 months, source partners vs placebo), the “risk of transmission of HSV-2” value is “reduced the risk of transmission of HSV-2”. Further, the “reduction of HIV-1 viral load in plasma, on average” value in the series on HIV-1 is 0.37 log10 copies/mL.
